The text below walks through data of patent US20250360113A1, “ADMINISTRATION OF DHB TO INCREASE BENEFIT OF LOSING WEIGHT OF INTERMITTENT FASTING” (NANJING NUTRABUILDING BIO-TECH CO., LTD., priority 2023, published 2025).

Data set [1] is described as follows: Insulin tolerance test (ITT). It is filed as in vivo, C57BL/6 male mice. To be noted: HFD obese mice. As for the experimental part: 50 C57BL/6 male mice aged about 8 weeks, are randomly assigned to five study groups (GA, GB1, GB2, GB3, GB4) of ten mice each (one cage, n=5 per condition). Mice were maintained in a pathogen free condition under a strict 12 h light/dark cycle (0600/1800 h) with 12-15 cycles/hour of air change. Mice were provided with access to respective feed and water ad libitum as per experimental conditions. Mice were housed under controlled laboratory conditions of temperature and humidity at 23±2° C. and 50±10% RH, respectively. Each study group consisted of ten animals, and treatment details of the individual study groups are given below: • Group A (GA, NC): Normal mice, maintained on normal diet (standard chow, 12% calories from fat; 23% calories from protein and 65% calories from carbohydrates) for 8 weeks, receiving neither EODF nor DHB treatment. • Group B1 (GB1): Obese mice, maintained on high fat diet (HFD, 60% calories from fat, 20% calories from protein, 20% calories from carbohydrate) for 8 weeks, receiving neither EODF nor DHB treatment. • Group B2 (GB2): Obese mice, maintained on HFD for 8 weeks, receiving only EODF and no DHB treatment. • Group B3 (GB3): Obese mice, maintained on HFD for 8 weeks, receiving only DHB treatment and no EODF. • Group B4 (GB4): Obese mice, maintained on HFD for 8 weeks, receiving DHB treatment and EODF combination. DHB was administered daily via intragastric injection (i.g.) according to a level of 70 mg/kg body weight. Mice not receiving DHB were given orally with ultrapure water. Insulin tolerance test (ITT): To measure […], ITT were measured in the 6-h fasting mice (NC and HFD groups) by using a glucose analyzer. The glucose concentrations were measured by venous bleeding at 0, 15, 30, 60 and 120 min after an i.p. injection of human insulin at 0.75 U/kg. Towards the end of the final week of the study, ITT was performed for all mice (NC and HFD groups).

The conditions of data set [2]: in vitro; cited from earlier work.
Setting [3] is: DHB + EODF combination vs EODF only.

Regarding `COc1ccc2c(c1OC)CN1CCc3cc4c(cc3C1=C2)OCO4` [DHB, Dihydroberberine], in data set [1] (DHB 70 mg/kg i.g. daily vs no DHB with and without EODF, FIGS. 11-14), the insulin levels entry was “greater reduction”. For the same compound, in data set [1] (setting [3]), the “improving the insulin tolerance” value was “greater effects” and the “reducing the insulin levels” value was “greater effects”. Besides, in data set [1] (human insulin 0.75 U/kg i.p., DHB vs no DHB with and without EODF), the insulin tolerance entry was “better”. Besides, the “intestinal absorption rate relative to BBR” value in data set [2] is “five times higher”.
